# Assay results reported in patent publication US5883077A, “Inhibitors of factor Xa” (Corvas International, Inc., priority 1993, dated 1999).
# Square brackets hold non-standard residues; d marks the D form. Peptide text beside a SMILES is read from it. * marks the point of attachment. d2Nal = N[C@H](Cc1ccc2ccccc2c1)C(=O)O; dPhg = N[C@@H](C(=O)O)c1ccccc1; Boc = CC(C)(C)OC(=O)*
# Legend:
# Assay type in all cases: biochemical
# Human factor Xa = target: T1, Human factor Xa (Homo sapiens, UniProt P00742); assay: Factor Xa assay, chromogenic substrate S2765; conditions: taken as 100 for each inhibitor by definition
# T1 construct: purchased Enzyme Research Laboratories
# Method: (§1) To assay their activities, the compounds of the present invention are dissolved in buffer to give solutions containing concentrations ranging under assay concentrations from 0 to about 100 μM. The enzyme to be tested is then added to a solution containing a specified concentration of the test compound. Then after an incubation period, synthetic substrate for the enzyme being tested is added. The rate of substrate turnover is determined spectrophotometrically. The IC50 of the test compound is determined for each test compound in assays for factor xa, factor XIa, thrombin and tPA. IC50 is that concentration of test compound giving 50% inhibition of the substrate turnover. Percent selectivity is used to indicate selectivity of a compound in inhibiting Factor Xa in comparison with either Factor XIa, thrombin or tPA. Percent selectivity of a particular compound for either Factor XIa, thrombin or tPA refers to a number obtained by dividing the product of one hundred and the IC50 of the compound for Factor Xa by the IC50 of the compound for either Factor XIa, thrombin or tPA.
# (§2) The specificity of the peptide aldehydes through was determined in vitro by measurement of their IC50 against factor Xa, factor XIa, thrombin and tissue plasminogen activator (tPA). Peptide aldehyde which has been described in the art was run as a comparison. A specific concentration of enzyme and its substrate were challenged with varying concentrations of inhibitor. IC50 is that concentration of inhibitor giving 50% inhibition of catalytic activity, under the assay conditions. Specific assay procedures used are presented below.
# Enzyme activity was determined using as substrate, S2765 (N-α-benzyloxycarbonyl-D-argininyl-L-glycyl-L-arginine-p-nitroanilide dihydrochloride) which was obtained from Kabi Diagnostica. The substrate was made up in deionized water prior to use.
# Human factor Xa was obtained from Enzyme Research Laboratories. The enzyme was diluted into TBSA prior to use.
# (§3) The assay was run by combining in appropriate wells 50 μL of TBSA, 50 μL of inhibitor in TBSA or TBSA (as negative control) and 50 μL of 2 nM human Factor Xa or TBSA (as background control). After incubating this mixture for 60 minutes at room temperature, 50 μL of 1 mM S-2765 was added to each well and the initial rate of the change of the optical density at 405 nm (OD405nm) for each well was determined. OD405nm was measured every 10 seconds for 5 minutes.
# Human factor XIa = target: T2, Human factor XIa (Homo sapiens, UniProt P03951); assay: Factor XIa assay, chromogenic substrate S2366; conditions: 100 times the IC50 for factor Xa divided by the IC50 of factor XIa
# T2 construct: purchased Enzyme Research Laboratories, Inc
# Method: as §1, §2
# Enzyme activity was determined using as substrate, S2366 (L-pyroglutamyl-L-prolyl-L-arginine-p-nitroanilide hydrochloride) which was obtained from Kabi Diagnostica. The substrate was made up in deionized water prior to use.
# Human factor XIa was obtained from Enzyme Research Laboratories, Inc. The enzyme was diluted into TBSA prior to use.
# as §3, with “Factor XIa” for “Factor Xa”, “of 6” for “of 1”, “mM S-2366” for “mM S-2765”
# Human α-thrombin = target: T3, Human α-thrombin (Homo sapiens, UniProt P00734); assay: Thrombin assay, chromogenic substrate S2238; conditions: 100 times the IC50 for factor Xa divided by the IC50 of thrombin
# T3 construct: Human α-thrombin was obtained from Enzyme Research Laboratories, Inc; purchased Enzyme Research Laboratories, Inc
# Method: as §1, §2
# Enzyme activity was determined using as substrate, S2238 (D-phenylalanyl-L-pipecolyl-L-arginine-p-nitroanilide dihydrochloride) which was obtained from Kabi Diagnostica. The substrate was made up in deionized water prior to use.
# Human α-thrombin was obtained from Enzyme Research Laboratories, Inc. The enzyme was diluted into TBSA prior to use.
# (§4) The assay was run by combining in appropriate wells 50 μL of TBSA, 50 μL of inhibitor in TBSA or TBSA (as negative control) and 50 μL of 4 nM human α-thrombin or TBSA (as background control). After incubating this mixture for 60 minutes at room temperature, 50 μL of 0.24 mM S-2238 was added to each well and the initial rate of the change of optical density at 405 nm (OD405nm) for each well was determined. OD405nm was measured every 10 seconds for 5 minutes.
# [1] = target: T4, Human recombinant t-PA (Activase®) (Homo sapiens, UniProt P00750); assay: tPA assay, chromogenic substrate Pefachrome tPA; conditions: 100 times the IC50 for factor Xa divided by the IC50 of tPA
# T4 construct: purchased Genentech, Inc
# Method: as §1, §2
# Enzyme activity was determined using as substrate, Pefachrome tPA (O-methylsulfonate-D-hexahydrotyrosine-L-glycyl-L-argini ne-p-nit roanilide acetate salt) which was obtained from Centerchem, Inc. The substrate was made up in deionized water prior to use.
# Human recombinant t-PA (Activase®) was obtained from Genentech, Inc. The enzyme was reconstituted with water, then diluted into TBSA prior to use.
# as §4, with “recombinant tPA” for “α-thrombin”, “4” for “0.24”, “Pefachrome tPA” for “S-2238”
# T2 sequence (P03951 388-625 limits assumed): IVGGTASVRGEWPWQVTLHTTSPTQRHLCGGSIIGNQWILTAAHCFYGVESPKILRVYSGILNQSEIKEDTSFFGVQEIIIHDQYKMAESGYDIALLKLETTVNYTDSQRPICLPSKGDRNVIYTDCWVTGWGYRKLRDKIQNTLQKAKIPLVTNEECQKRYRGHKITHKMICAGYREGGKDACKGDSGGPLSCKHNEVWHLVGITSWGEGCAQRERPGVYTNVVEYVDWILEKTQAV
# T2 sequence (P03951 19-387 partner limits assumed): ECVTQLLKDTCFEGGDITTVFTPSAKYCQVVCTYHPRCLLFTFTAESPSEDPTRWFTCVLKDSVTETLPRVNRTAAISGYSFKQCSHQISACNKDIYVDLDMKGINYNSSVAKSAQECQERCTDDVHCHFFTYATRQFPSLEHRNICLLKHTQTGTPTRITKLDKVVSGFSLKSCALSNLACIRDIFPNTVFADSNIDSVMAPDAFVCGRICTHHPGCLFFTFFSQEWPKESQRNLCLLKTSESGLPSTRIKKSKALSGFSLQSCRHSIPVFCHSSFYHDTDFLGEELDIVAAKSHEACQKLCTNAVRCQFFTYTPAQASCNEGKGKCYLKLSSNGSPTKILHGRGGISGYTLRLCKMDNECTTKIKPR
# T4 sequence (P00750 36-562): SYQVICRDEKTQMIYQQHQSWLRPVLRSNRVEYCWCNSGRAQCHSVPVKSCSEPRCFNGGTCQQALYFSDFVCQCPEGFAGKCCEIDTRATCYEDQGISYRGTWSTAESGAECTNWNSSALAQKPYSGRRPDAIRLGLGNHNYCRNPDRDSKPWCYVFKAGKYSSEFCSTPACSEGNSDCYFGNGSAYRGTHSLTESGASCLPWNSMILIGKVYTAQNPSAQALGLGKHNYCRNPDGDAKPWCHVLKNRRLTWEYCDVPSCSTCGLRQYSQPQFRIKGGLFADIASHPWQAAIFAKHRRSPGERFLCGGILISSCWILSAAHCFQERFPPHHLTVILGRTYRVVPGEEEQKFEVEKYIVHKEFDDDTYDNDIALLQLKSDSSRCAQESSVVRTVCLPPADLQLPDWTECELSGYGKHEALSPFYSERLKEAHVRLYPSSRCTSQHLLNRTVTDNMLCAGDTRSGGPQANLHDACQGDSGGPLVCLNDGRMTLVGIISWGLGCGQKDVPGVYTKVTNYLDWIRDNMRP
# T1 sequence (P00742 235-488 limits assumed): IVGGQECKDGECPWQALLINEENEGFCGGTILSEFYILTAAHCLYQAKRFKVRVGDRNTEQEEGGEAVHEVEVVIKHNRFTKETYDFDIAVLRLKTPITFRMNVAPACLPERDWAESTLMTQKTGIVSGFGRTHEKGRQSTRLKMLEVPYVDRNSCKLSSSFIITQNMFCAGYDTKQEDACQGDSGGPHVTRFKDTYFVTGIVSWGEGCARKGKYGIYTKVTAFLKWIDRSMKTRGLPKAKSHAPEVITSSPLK
# T1 sequence (P00742 41-179 partner limits assumed): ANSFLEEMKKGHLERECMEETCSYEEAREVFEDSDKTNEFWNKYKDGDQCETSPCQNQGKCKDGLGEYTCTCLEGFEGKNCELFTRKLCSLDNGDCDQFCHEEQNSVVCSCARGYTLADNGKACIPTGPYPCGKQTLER
SMILES,Percent Selectivity Xa (Human factor Xa),Percent Selectivity XIa (Human factor XIa),Percent Selectivity Thrombin (Human α-thrombin),Percent Selectivity tPA [1]
"CC(C)(C)OC(=O)N[C@H](Cc1ccccc1)C(=O)N1CC[C@H](c2ccccc2)[C@H]1C(=O)N[C@H](C=O)CCCNC(=N)N (relative stereo) [[10], N-t-butoxycarbonyl-D-phenylalanyl-L-(3-trans-phenyl)prolinyl-L-argininal]",100,< 2.5,< 2.5,< 2.5
"CC(C)(C)OC(=O)N[C@H](Cc1ccc2ccccc2c1)C(=O)N[C@@H](Cc1ccccc1)C(=O)N[C@H](C=O)CCCNC(=N)N [[1], N-t-butoxycarbonyl-D-3-(2-naphthyl)alanyl-L-phenylalanyl-L-araininal] (Boc-[d2Nal]-Phe-Arg-aldehyde)",100,1.4,1.6,< 0.9
"CC(C)(C)OC(=O)N[C@@H](C(=O)N[C@@H](Cc1ccccc1)C(=O)N[C@H](C=O)CCCNC(=N)N)c1ccccc1 [[2], N-t-butoxycarbonyl-D-2-phenylglycyl-L-phenylalanyl-L-araininal] (Boc-[dPhg]-Phe-Arg-aldehyde)",100,4.9,< 2.6,< 2.6
"CC(C)(C)OC(=O)N[C@H](Cc1ccccc1)C(=O)N[C@@H](Cc1ccccc1)C(=O)N[C@H](C=O)CCCNC(=N)N [[4], N-t-butoxycarbonyl-D-phenylalanyl-L-phenylalanyl-L-argininal] (Boc-[dF]-Phe-Arg-aldehyde)",100,0.8,< 0.8,< 0.8
"CC(C)(C)OC(=O)NC(C(=O)N[C@@H](Cc1cccc2ccccc12)C(=O)N[C@H](C=O)CCCNC(=N)N)c1ccc(-c2ccccc2)cc1 (stereo partly drawn) [[7], N-t-butoxycarbonyl-D,L-(α-biphenyl)qlycyl-L-3-(1-naphthyl)alanyl-L-argininal]",100,< 10,< 10,< 10
